# Reference: US6110491A, “Compound-loaded liposomes and methods for their preparation” (Hermes Biosciences, Inc., priority 1997, dated 2000)
# Assays:
# [1] = Doxorubicin loading into liposomes with entrapped anions essentially free from transmembrane pH or ammonium ion gradients (Example 8); type: physicochemical; details: 36° C., 12 hours
# Description: Aqueous solutions containing ammonium salts of hydrochloric, nitric, methanesulfonic, L(+)-tartaric, citric, sulfuric, phosphoric, diethylenetriamine pentaacetic (DTPA), or polyacrylic (Mol. weight. 2,000) acids were prepared by titration of the respective acids in water with the standard aqueous solution of ammonium hydroxide to achieve pH 7.3±0.05,followed by volume adjustment to achieve 0.2 equivalent/L of ammonium ion, and, if necessary, by addition of dry sucrose to achieve osmolarity of 377 mmol/kg. (These solutions are hereinafter referred to as Inner Buffers). All solutions additionally contained 10 mM hydroxyethylpiperazinoethane sulfonic acid (HEPES) to stabilize the pH at titration endpoint. To afford determination of intraliposomal pH, a fluorescence indicator 8-hydroxypyrene trisulfonate was added to the solutions to the final concentration of 0.2 mM. Liposomes containing entrapped ammonium salt solutions as above were prepared from egg phosphatidyl choline, cholesterol, and PEG-DSPE as described in the Example 7, except that lipid hydration and extrusion were carried out at room temperature. The bulk aqueous phases of liposome preparations were exchanged by gel-filtration for an aqueous solution (Outer buffer) containing 0.2 M ammonium chloride, 10 mM HEPES, pH 7.3, osmolarity 377 mmol/kg, to obtain liposome preparations substantially without transmembrane ammonium-ion gradients. Loading of doxorubicin was performed as in Example 7, except that it was at 36° C. for 12 hours. Intraliposomal pH was determined using HPTS fluorescence method (Straubinger, et al., 1990) prior to drug loading, and indicated essentially no inside-outside pH gradient (less than 0.2 pH units), compared with the gradient of several pH units typical for ammonium ion gradient liposomes (Haran, et al., 1993). The following results were obtained (nd, not determined)
# [2] = Doxorubicin loading into liposomes containing ammonium polyacrylate or sulfate in absence of ammonium ion gradient (Example 7); type: physicochemical; details: for Doxorubicin absorbed by liposomes: no ammonium ion gradient; for Doxorubicin incorporation into liposomes: outer Cl-
# Description: Liposomes with entrapped ammonium sulfate or ammonium polyacrylate were prepared from the lipid mixture of hydrogenated soybean phosphatidylcholine (Avanti PolarLipids, Ala., U.S.A.), cholesterol (Calbiochem, USA), and poly(ethylene glycol) (Mol. weight 2,000) derivative of distearoyl phosphatidyl ethanolamine (PEG-DSPE) (Sygena, Switzerland), at the molar ratio 60:40:6, by lipid film hydration, repetitive freezing-thawing at 60° C. (6 times) and extrusion through two stacked polycarbonate track-etched membranes with the pore size 100 nm at 60° C. (12 times). The bulk aqueous phase of the liposomes was exchanged by gel-filtration for the outer buffer, 0.2 M ammonium chloride, adjusted (when necessary) to pH 7.3 and buffered with 10 mM sodium hydroxyethylpiperazino-ethane sulfonate (HEPES). The inner (entrapped) solution had ammonium ion concentration of 200 milli-eqivalent/L, i.e. the same as the outer buffer (no ammonium ion gradient), and the anion composition and pH as indicated below. Polyacrylic acid with mol. weight of 2,000 (Aldrich Chemical Co.) was used. Doxorubicin was added to the liposomes at 2 mg for each 6-8 micro-mol of phospholipid, and incubated with shaking at 60° C., i.e. above the transition temperature of the lipid bilayer, for various times as specified below. […] Doxorubicin-loaded liposomes were separated from the free drug by gel-chromatography on Sephadex G-75, eluted with the outer buffer. Liposomal doxorubicin was assayed by spectrophotometry at 485 nm, phospholipid was quantitated by molybdate method after acid digestion of the liposomes.
# [3] = Doxorubicin loading into liposomes with entrapped polyacrylate / chondroitin sulfate A (Examples 1, 3); type: physicochemical
# Description: 21.6 mg of polyacrylic acid (molecular weight 2,000; Aldrich Corporation, Milwaukee, Wis.) were dissolved in 3 ml of water and neutralized to pH 7.4 with NaOH to produce 100 milli-eq/L sodium polyacrylate solution. 10 mg of the mixture of egg PC, cholesterol, and PEG (molecular weight 2,000)-DSPE (Avanti Polar Lipids, Birmingham, Ala.) in the molar ratio of 10:5:1 was dissolved in chloroform, the solvent was evaporated in vacuum, the lipid film was incubated with shaking in 1 ml of the above polyacrylate solution, and the lipid dispersion was extruded under pressure through 2 stacked Nucleopore (Pleasanton, Calif.) membranes with pore size […]. […] To the so obtained liposomes, doxorubicin (Cetus Oncology, Norwalk, Conn.) was added at 200 nmol/μmol, of liposomal phospholipid. The mixture was incubated overnight at 37° C. with shaking, treated with Dowex 50W×4 (Sigma Chemical Co., St. Louis, Mo.), and equilibrated with NaCl-HEPES solution to remove non-encapsulated doxorubicin. The resulting liposomes were sterilized by filtration through a […] filter and assayed for doxorubicin by spectrophotometry and liposomal phospholipid by acid digestion-molybdene blue assay. […] Under similar conditions, doxorubicin loading into liposomes without entrapped sodium polyacrylate was 8 nmol/μmol of phospholipid.
# Liposomes were prepared as in Example 1, except that inner buffer, instead of polyacrylic acid, contained 5 mg/ml of chondroitinsulfate A (Sigma Chemical Co., St. Louis, Mo.). After overnight incubation with doxorubicin ([…] of phospholipid) at pH 7.2, free drug was removed from the liposomes, and the liposomes were assayed as in Example 1. The doxorubicin content in the resulting liposomes was 26.0 nmol/μmol of phospholipid.
# [4] = liposomes loaded by the ammonium ion method (Haran, et al., 1993); cited from earlier work
# [5] = Doxorubicin precipitation by Inner Buffer anions (Example 9); type: physicochemical; details: for Doxorubicin precipitation: 1 mg/ml, 22° C., 3 hours
# Description: Doxorubicin hydrochloride was added to the aliquots of Inner Buffers described in the Example 8 above to achieve final concentration of 1 mg/ml. The mixtures were briefly incubated at 60° C. to effect maximum drug dissolution, and further equilibrated at ambient temperature (22° C.) with gentle shaking for 3 hours. Precipitated doxorubicin was separated by centrifugation of an Eppendorf centrifuge (10,000 rpm, 5 min.), and the amount of doxorubicin in supernatant fluid was determined by spectrophotometry. The percent of drug precipitation was calculated as 100% less the percent of doxorubicin remaining in the supernatant fluid relative to the total added doxorubicin.
# [6] = inner buffer anion L(+)-tartrate
# [7] = inner buffer anion methanesulfonate
# [8] = inner buffer anion polyacrylate
smiles,measurement,setting,value
COc1cccc2c1C(=O)c1c(O)c3c(c(O)c1C2=O)C[C@@](O)(C(=O)CO)C[C@@H]3O[C@H]1C[C@H](N)[C@H](O)[C@H](C)O1 [doxorubicin],Doxorubicin incorporation into liposomes,[1]; inner buffer anion DTPA,40.8 mg of drug/mmol of liposome ph
same,Doxorubicin incorporation into liposomes,[1]; [6],27.5 mg of drug/mmol of liposome ph
same,Doxorubicin incorporation into liposomes,[1]; inner buffer anion chloride,16.8 mg of drug/mmol of liposome ph
same,Doxorubicin incorporation into liposomes,[1]; inner buffer anion citrate,97.9 mg of drug/mmol of liposome ph
same,Doxorubicin incorporation into liposomes,[1]; [7],17.1 mg of drug/mmol of liposome ph
same,Doxorubicin incorporation into liposomes,[1]; inner buffer anion nitrate,12.4 mg of drug/mmol of liposome ph
same,Doxorubicin incorporation into liposomes,[1]; inner buffer anion phosphate,68.1 mg of drug/mmol of liposome ph
same,Doxorubicin incorporation into liposomes,[1]; [8],142.7 mg of drug/mmol of liposome ph
same,Doxorubicin incorporation into liposomes,[1]; inner buffer anion sulfate,33.5 mg of drug/mmol of liposome ph
same,Doxorubicin absorbed by liposomes,[2]; ammonium polyacrylate liposomes,considerable amounts
same,Doxorubicin absorbed by liposomes,"[2]; ammonium sulfate liposomes, 60° C.",very small amounts
same,Doxorubicin precipitate formation,"[2]; in the presence of polyacrylate anion, 60° C.",visibly precipitated
same,Doxorubicin precipitate formation,"[2]; in the presence of sulfate anion, 60° C.",did not form a detectable precipitate
same,Doxorubicin incorporation into liposomes,"[2]; inner SO4^2-, pH 7.3, 1 hour, 60° C.",6.1 ± 0.8 mg of drug/mmol of liposome ph
same,Doxorubicin incorporation into liposomes,"[2]; inner SO4^2-, pH 7.3, 16 hours, 60° C.",5.1 ± 0.2 mg of drug/mmol of liposome ph
same,Doxorubicin incorporation into liposomes,"[2]; inner polyacrylate, pH 5.2, 1 hour, 60° C.",59.7 ± 2.5 mg of drug/mmol of liposome ph
same,Doxorubicin incorporation into liposomes,"[2]; inner polyacrylate, pH 7.3, 1 hour, 60° C.",91.0 ± 2.8 mg of drug/mmol of liposome ph
same,Doxorubicin content in the resulting liposomes,"[3]; entrapped chondroitin sulfate A 5 mg/ml, overnight, pH 7.2",26.0 nmol/μmol of phospholipid
same,Doxorubicin content of liposomes,"[3]; entrapped sodium polyacrylate, egg PC/cholesterol/PEG-DSPE, doxorubicin 200 nmol/μmol, overnight 37° C.",129 nmol/μmol of liposomal phospholipid
same,Doxorubicin loading into liposomes,"[3]; without entrapped sodium polyacrylate, similar conditions",8 nmol/μmol of phospholipid
same,Doxorubicin release by nigericin,[4],quickly releases
same,"correlation coefficient R, extent of drug loading vs. drug solubility in Inner Buffer",[5]; Examples 8 and 9,0.9043
same,Doxorubicin precipitation,[5]; inner buffer anion DTPA,58.1%
same,Doxorubicin precipitation,[5]; [6],25.0%
same,Doxorubicin precipitation,[5]; inner buffer anion chloride,1.1%
same,Doxorubicin precipitation,[5]; inner buffer anion citrate,81.4%
same,Doxorubicin precipitation,[5]; [7],0%
same,Doxorubicin precipitation,[5]; inner buffer anion nitrate,0%
same,Doxorubicin precipitation,[5]; inner buffer anion phosphate,73.7%
same,Doxorubicin precipitation,[5]; [8],98.4%
same,Doxorubicin precipitation,[5]; inner buffer anion sulfate,47.5%
